The values that follow come from patent EP0451772A1, “Piperidine compounds, method for preparation thereof, and a pharamceutical composition comprising the same” (HOKURIKU PHARMACEUTICAL CO., LTD., priority 1990, dated 1991).

Data set [1] concerns passive cutaneous anaphylaxis (PCA) in rats. The experiment in a line: 48 hr homologous passive cutaneous anaphylaxis (PCA) in rats. As to conditions: Rattus norvegicus, po, read-out: the percent inhibition of PCA in rats. It counts as in vivo, Male Wistar rats. Here is the method:
(§1) The results of 48 hr homologous passive cutaneous anaphylaxis (PCA) in rats with the monitoring of antiallergic activity and the results of potentiation of hexobarbital-induced anesthesia in mice with the monitoring of central nervous depressive activity are summarized in Table 1. The following compound was used as the reference compound. Reference compound : Ketotifen-Fumarate
Ascaris extract coupled with 2, 4-dinitrophenyl group (DNP-As) was prepared by the method of Koda et al. (Folia pharmacol. japon., 78, 319-334, 1981) and anti-DNP-As containing IgE antibody serum was prepared by the method of Tada and Okumura (J. Immunol., 106, 1019-1025, 1971). The PCA titer of the antiserum was estimated to be 1:128 by 48 hr PCA in rats.
Male Wistar rats weighing 160 to 200 g were sensitized passively by intradermal injection, in the back, of 0.05 ml of anti-DNP-As serum diluted 21-fold with saline. After 48 hr, the animals (18-20 hr fasted) were given iv. 0.5 ml of 1% Evans blue solution containing 1 mg of DNP-As. After an additional 30 min, the animals were killed by stunning and the skins were removed. The intensity of the response was evaluated by assaying the amount of dye leaked according to the method of Katayama et al. (Microbiol. Immunol., 22, 89-101, 1978). The percent inhibition of PCA was calculated using the following formula: [formula]
Test compounds were given orally in a dose of 1 mg/kg 1 hr prior to challenge with antigen. As a control, 5 ml/kg of vehicle (0.5 % CMC) alone were given in a similar manner.

For data set [2], the system named is hexobarbital-induced anesthesia in mice. Set-up: species or system male ddY mice. The conditions noted are these: mouse, in vivo.
Text: as §1
The loss of righting reflex induced by hexobarbital was used as an index of anesthesia. Groups of eight male ddY mice (20-24 hr fasted) weighing 19 to 27 g were treated orally with the test compounds (30 mg/kg) or vehicle. Thirty min later, 80 mg/kg of hexobarbital sodium were injected i.p. to the animals and the duration of loss of righting reflex was observed.

The mark [3] stands for this setting: 1 mg/kg, p.o., 1 hr prior to challenge with antigen, amount of dye leaked.

Structures can show the parent of a compound that is named as a salt. Where two headings read alike, the source gives them in different places.

Take `Cl.O=C(O)CCCN1CCC(=C2c3ccccc3CC(=O)c3sccc32)CC1` [Example 6, 4-(4,9-Dihydro-10-oxo-10H-benzo[4,5]cyclohepta[1,2-b]thiophen-4-ylidene)-1-piperidinebutyric Acid Hydrochloride]: the inhibition in vivo at 1 mg/kg in data set [1] (setting [3]) was found to be 77%. Moreover, the “the percent increase of hexobarbital-induced anesthesia in mice” value (“the percent increase” below) in data set [2] is recorded as 26%.
On to `Cl.O=C(O)CCCCCN1CCC(=C2c3ccccc3CSc3ccccc32)CC1` [Example 15, 4-(Dibenzo[b,e]thiepin-11(6H)-ylidene)-1-piperidinecaproic Acid Hydrochloride], for which the inhibition in vivo at 1 mg/kg in data set [1] (setting [3]) was 57%. For the same molecule, the “the percent increase” value in data set [2] turned out to be 33%.
For `O=C(O)CCN1CCC(=C2c3ccccc3CSc3ccccc32)CC1` [Example 10, 4-(Dibenzo[b,e]thiepin-11(6H)-ylidene)-1-piperidinepropionic Acid Hydrochloride], in that order: 69% and 19%.
Regarding `Cl.O=C(O)CCCCN1CCC(=C2c3ccccc3CC(=O)c3sccc32)CC1` [Example 8, 4-(4,9-Dihydro-10-oxo-10H-benzo[4,5]cyclohepta[1,2-b]thiophen-4-ylidene)-1-piperidinevaleric Acid Hydrochloride], in data set [1] (setting [3]), the inhibition in vivo at 1 mg/kg came to 71%. The “the percent increase” value in data set [2] is 27%.
For `Cl.O=C(O)CCN1CCC(=C2c3ccccc3CC(=O)c3sccc32)CC1` [Example 5, 4-(4,9-Dihydro-10-oxo-10H-benzo[4,5]cyclohepta[1,2-b]thiophen-4-ylidene)-1-piperidinepropionic Acid Hydrochloride], in data set [1] (setting [3]), the inhibition in vivo at 1 mg/kg came out at 75%. Also, in data set [2], the “the percent increase” value is 24%.
`CN1CCC(=C2c3ccccc3CC(=O)c3sccc32)CC1` [Reference compound, 4,9-dihydro-4-(1-methyl-4-piperidinylidene)-10H-benzo[4,5]cyclohepta[1,2-b]thiophen-10-one, reference compound]: in data set [1], the inhibition in vivo at 1 mg/kg worked out at 56%. For the same molecule, the “the percent increase” value in data set [2] amounted to 90%.
`O=C(O)CCCN1CCC(=C2c3ccccc3CSc3ccccc32)CC1` [Example 13, 4-(Dibenzo[b,e]thiepin-11(6H)-ylidene)-1-piperidinebutyric Acid Hydrochloride]: the inhibition in vivo at 1 mg/kg in data set [1] (setting [3]) was 58%. The “the percent increase” value in data set [2] was found to be 30%.
For `Cl.O=C(O)CCCCN1CCC(=C2c3ccccc3CSc3ccccc32)CC1` [Example 14, 4-(Dibenzo[b,e]thiepin-11(6H)-ylidene)-1-piperidinevaleric Acid Hydrochloride], in that order: 63% and 19%.
Regarding `O=C(O)CCN1CCC(=C2c3ccccc3Sc3ccccc32)CC1` [Example 18, 4-(9H-Thioxanthen-9-ylidene)-1-piperidinepropionic Acid], the inhibition in vivo at 1 mg/kg in data set [1] (setting [3]) was 96%. In data set [2], the “the percent increase” value is given as 49%.
